Data taken from patent publication US20230346790A1, “PHARMACEUTICAL COMPOSITION FOR PREVENTION OR TREATMENT OF CANCERS ASSOCIATED WITH KRAS MUTATION” (WELLMARKER BIO CO., LTD., priority 2020, published 2023).
Entries after “also recorded” stand apart in the source; their conditions may differ.

Key:
[1] = test system: pTyr-mRON, p-ERK, β-catenin, c-myc, cleaved caspase-3 in cell line R2; test: Western blotting of protein expression after empty vector or β-catenin transfection; format: cell-based
Protocol: The parent cell line LIM1215 and the cetuximab-resistant cell line R2 were counted. 2×10^6 cells of each cell line were washed with 1x PBS once and then lysed with 1x RIPA lysis buffer. The cell lysate was reacted on ice for 20 minutes, and then centrifuged at 13,000 rpm for 20 minutes at 4° C. to obtain a supernatant. After proteins in the obtained supernatant were quantified using Bradford method, 20 µg of the protein was subjected to sodium-polyacrylamide gel electrophoresis (SDS-PAGE).
Transfer was performed using polyvinylidene fluoride (PVDF) membrane. Then, each of phospho-RON antibody (MyBiosource, Inc., cat# MBS462024; 1:500), RON antibody (Santa Cruz Biotechnology, cat# sc-374626; 1:1,000), phospho-EGFR antibody (Cell Signaling Technology, Inc., cat# 2234; 1:1,000), EGFR antibody (Cell Signaling Technology, Inc., cat# 2232; 1:1,000), phospho-Akt antibody (Cell Signaling Technology, Inc., cat# 4060; 1:1,000), Akt antibody (Cell Signaling Technology, Inc., cat# 9272; 1:1,000), phospho-ERK antibody (Cell Signaling Technology, Inc., cat# 4370; 1:1,000), ERK antibody (Cell Signaling Technology, Inc., cat# 4695; 1:1,000), phospho-β-catenin antibody (Cell Signaling Technology, Inc., cat# 9561; 1:1,000), β-catenin antibody (Cell Signaling Technology, Inc., cat# 8480; 1:1,000), c-myc antibody (Santa Cruz Biotechnology, cat# sc-40; 1:500), and β-actin antibody (Santa Cruz Biotechnology, cat# sc-47778; 1:1,000) was diluted in 5% skim milk tris buffered saline with Tween 20 (TBS-T) solution and reacted at 4° C. overnight.
After completion of the reaction, washing with the TBS-T solution was performed three times for 10 minutes each. Subsequently, anti-mouse-HRP or anti-rabbit-HRP (Cell Signaling Technology, Inc., cat# 7074 or 7076; 1:2,000) was diluted in the 5% skim milk TBS-T solution, and then reacted at room temperature for 2 hours. Then, washing with the TBS-T solution was performed three times for 10 minutes each, and then development was performed using an ECL solution (GE Healthcare, cat# RPN2108).
(§1) Subsequently, all cells were collected when 48 hours had elapsed. Cell death induction efficacy was compared and analyzed using a trypan blue exclusion assay. In addition, using these samples, changes in expression of respective proteins were compared and analyzed with the western blotting method.

[2] = test system: cell line R2 exhibiting secondary resistance to cetuximab (LIM1215, KRAS G13D); test: Tumor growth inhibition in mice transplanted with cetuximab-resistant cell line R2; format: in vivo, BALB/c nude mice; details: R2 xenograft mice
Protocol: 5-Week-old female BALB/c nude mice were purchased and acclimatized for 1 week. […] The compound of Example 1 was orally administered when the tumor reached a size of about 100 mm^3. The compound of Example 1 was administered once a day for 2 weeks, and tumor size and body weight were measured twice a week.
(§2) After completion of the 4-week experiment, the experimental animals were euthanized, and then the tumors were extracted and weighed. In addition, with respect to the tumor tissues, changes in expressions of pTyr-mRON, mRON, β-catenin, and cleaved caspase-3 were analyzed with immunohistochemical staining.

[3] = test system: cetuximab-resistant cell line R2 (LIM1215, KRAS G13D, RON Δ155); test: Cell death rate by trypan blue staining and cell counting, cetuximab-resistant line; format: cell-based; details: cetuximab-resistant cell line R2, 1 µM, 48 hours
Protocol: (§3) The parent cell line LIM1215 and the cetuximab-resistant cell line R2 were counted, and each of them was seeded at 3×10^5 cells in a 60 mm dish. After 24 hours, treatment with 1 µM of each of the compounds of Example 1, Example 2, Example 3, Example 4, Example 5, positive control 1 (BMS-777607), positive control 2 (crizotinib), and positive control 3 (cabozantinib) was performed. After 48 hours had elapsed since the treatment, the cells were collected, resuspended in 1x phosphate buffered saline (PBS), and stained with a trypan blue solution. The stained cells were counted using a hemocytometer. Cell counting was performed in duplicate, and the mean and the standard deviation were calculated.

[4] = test system: cell line R2 exhibiting secondary resistance to cetuximab, overexpressing β-catenin; test: Cell death induction after β-catenin overexpression, trypan blue exclusion assay; format: cell-based; details: 48 hours
Protocol: as §1

[5] = test system: pTyr-mRON, mRON, β-catenin, cleaved caspase-3 in tumor tissues; test: Immunohistochemical staining of extracted tumor tissues; format: in vivo, BALB/c nude mice; details: R2 xenograft
Protocol: as §2

parent cell line LIM1215 = test: Cell death rate by trypan blue staining and cell counting, cetuximab-sensitive parent line; format: cell-based; details: parent cell line LIM1215, 1 µM, 48 hours
Protocol: as §3

[6] = cell line R2, β-catenin overexpressed
[7] = cell line R2 transfected with the empty vector

## CCOc1ccn(-c2ccc(F)cc2)c(=O)c1C(=O)Nc1ccc(Oc2ccnc3cc(-c4ccc(CN5CCOCC5)cn4)sc23)c(F)c1.Cl [Example 1, 4-Ethoxy-N-[3-Fluoro-4-({2-[5-(Morpholinomethyl)Pyridine-2-yl]Thieno[3,2-b]Pyridine-7-yl}Oxy)Phenyl]-1-(4-Fluorophenyl)-2-Oxo-1,2-Dihydropyridine-3-Carboxamide Hydrochloride]
[1]; cell line R2, regardless of β-catenin, western blotting
  expression of pTyr-mRON: decreased
[1]; [6]
  expression of c-myc: increased again
  expression of cleaved caspase-3: decreased
  expression of p-ERK: increased again
  expression of β-catenin: increased again
[1]; [7]
  expression of c-myc: decreased
  expression of p-ERK: decreased
  expression of β-catenin: decreased
[2]; 15 mg/kg, oral once a day
  Tumor growth inhibition (TGI, %): 62.3±4.5%
[2]; small dose
  tumor size inhibition effect as compared with cetuximab: remarkably excellent tumor size inhibition effect
[3]; Hydrochloride
  cell death rate: high cell death rate; also recorded: cell death was effectively induced
[4]
  cell death induction efficacy: reduced
[5]
  expression of cleaved caspase-3 in tumor tissue: increased
  expression of pTyr-mRON in tumor tissue: decreased
  expression of β-catenin in tumor tissue: decreased

## COc1cc2c(Oc3ccc(NC(=O)c4c5c(cn(-c6ccc(F)cc6)c4=O)CCO5)cc3F)ccnc2cc1OCCCN1CC(C#N)C1 [Example 5, N-(4-((7-(3-(3-Cyanoazetidine-1-yl)Propoxy)-6-Methoxyquinoline-4-yl)Oxy)-3-Fluorophenyl)-5-(4-Fluorophenyl)-6-Oxo-2,3,5,6-Tetrahydrofuro[3,2-c]Pyridine-7-Carboxamide]
[3]
  cell death rate: cell death was effectively induced

## CCOc1ccn(-c2ccccc2)c(=O)c1C(=O)Nc1ccc(Oc2ccnc3cc(-c4ccc(CN5CCN(C)CC5)cn4)sc23)c(F)c1.Cl [Example 3, 4-Ethoxy-N-{3-Fluoro-4-[(2-{5-[(4-Methylpiperazin-1-yl)Methyl]Pyridin-2-yl}Thieno[3,2-b]Pyridin-7-yl)Oxy]Phenyl}-2-Oxo-1-Phenyl-1,2-Dihydropyridine-3-Carboxamide Hydrochloride]
[3]; Hydrochloride
  cell death rate: cell death was effectively induced

## COc1cc2c(Oc3ccc(NC(=O)c4c5c(cn(-c6ccc(F)cc6)c4=O)CCO5)cc3F)ccnc2cc1OCCN1CCOCC1 [Example 4, N-(3-Fluoro-4-((6-Methoxy-7-(2-Morpholinoethoxy)Quinolin-4-yl)Oxy)Phenyl)-5-(4-Fluorophenyl)-6-Oxo-2,3,5,6-Tetrahydrofuro[3,2-c]Pyridine-7-Carboxamide]
[3]
  cell death rate: cell death was effectively induced

## C[C@@H](Oc1cc(-c2cnn(C3CCNCC3)c2)cnc1N)c1c(Cl)ccc(F)c1Cl [positive control 2, reference compound]
[3]
  cell death rate: cell death was not induced
Parent cell line LIM1215
  cell death rate: increased cell death rate

## CCOc1ccn(-c2ccccc2)c(=O)c1C(=O)Nc1ccc(Oc2ccnc3cc(-c4ccc(CNCCOC)cn4)sc23)c(F)c1.Cl [Example 2, 4-Ethoxy-N-(3-Fluoro-4-{[2-(5-{[(2-Methoxyethyl)Amino]Methyl}Pyridine-2-yl)Thieno[3,2-b]Pyridine-7-yl]Oxy}Phenyl)-2-Oxo-1-Phenyl-1,2-Dihydropyridine-3-Carboxamide Hydrochloride]
[3]; Hydrochloride
  cell death rate: cell death was effectively induced

## CCOc1ccn(-c2ccc(F)cc2)c(=O)c1C(=O)Nc1ccc(Oc2ccnc(N)c2Cl)c(F)c1 [positive control 1, reference compound]
[3]
  cell death rate: cell death was not induced
Parent cell line LIM1215
  cell death rate: cell death was not induced
